{
  "source": "patent US6770637B2",
  "about": "“Substituted 4-phenyl-pyridine compounds with activity as antagonists of neurokinin 1 receptors” (Hoffmann-La Roche Inc., priority 2000, dated 2004)",
  "data": [
    {"molecular_target": "T1, human NK1 receptor (Homo sapiens, UniProt P25103)", "T1 construct": "expressed in transfected cells; host or cells: CHO cells infected with the Semliki virus expression system; membrane suspension", "T1 sequence (P25103 whole entry)": "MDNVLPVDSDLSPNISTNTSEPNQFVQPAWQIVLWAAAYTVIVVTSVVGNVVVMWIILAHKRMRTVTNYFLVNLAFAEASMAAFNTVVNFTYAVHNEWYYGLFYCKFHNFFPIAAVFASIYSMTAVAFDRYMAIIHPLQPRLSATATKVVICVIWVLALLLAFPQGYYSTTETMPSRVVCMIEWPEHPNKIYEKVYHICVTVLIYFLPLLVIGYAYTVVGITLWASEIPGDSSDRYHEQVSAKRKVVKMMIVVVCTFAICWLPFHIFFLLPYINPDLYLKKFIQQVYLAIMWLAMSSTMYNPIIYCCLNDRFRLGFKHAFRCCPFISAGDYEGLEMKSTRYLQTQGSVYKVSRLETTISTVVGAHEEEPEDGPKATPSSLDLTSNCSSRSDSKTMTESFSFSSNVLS", "test": "NK1 receptor binding assay, displacement of [3H]substance P", "conditions": "affinity to the NK-1 receptor; human NK1 receptors in CHO cells (Semliki virus expression system); [3H]substance P 0.6 nM", "experimental": "The affinity of tests compounds for the NK1 receptor was evaluated at human NK 1 receptors in CHO cells infected with the human NK1 receptor (using the Semliki virus expression system) and radiolabelled with [^3H]substance P (final concentration 0.6 nM.) Binding assays were performed in HEPES buffer (50 mM, pH 7.4) containing BSA (0.04%) leupeptin (8 μg/ml), MnCl2 (3 mM) and phosphoramidon (2 μM). Binding assays consisted of 250 μl of membrane suspension (1.25×10^5 cells/assay tube), […] of bugger of displacing agent and 125 μl of [^3H]substance P. Displacement curves were determined with at least seven concentrations of the compound. The assay tubes were incubated for 60 min at room temperature after which time the tube contents were rapidly filtered under vacuum through GF/C filters presoaked for 60 min with PEI (0.3%) with 2×2 ml washes of HEPES buffer (50 mM, pH 7.4). The radioactivity retained on the filters was measured by scintillation counting. All assays were performed in triplicate in at least 2 separate experiments.", "units": {"Ki": "nM"}, "values": [
      {"molecule": "Cc1ccccc1-c1cc(OCCCO)ncc1C(=O)N(C)Cc1cc(C(F)(F)F)cc(C(F)(F)F)c1", "note": "[Example 113, N-(3,5-Bis-trifluoromethyl-benzyl)-6-(3-hydroxy-propoxy)-N-methyl-4-o-tolyl-nicotinamide]", "Ki": 1.66},
      {"molecule": "Cc1noc(-c2cc(-c3ccccc3C)c(C(=O)N(C)Cc3cc(C(F)(F)F)cc(C(F)(F)F)c3)cn2)n1", "note": "[Example 62, N-(3,5-Bis-trifluoromethyl-benzyl)-N-methyl-6-(3-methyl-[1,2,4]oxadiazol-5-yl)-4-o-tolyl-nicotinamide]", "Ki": 3.02},
      {"molecule": "Cc1ccccc1-c1cc([S+]([O-])c2ccccn2)ncc1C(=O)N(C)Cc1cc(C(F)(F)F)cc(C(F)(F)F)c1", "note": "(racemic) [Example 99, (RS)-N-(3,5-Bis-trifluoromethyl-benzyl)-N-methyl-6-(pyridine-2-sulfinyl)-4-o-tolyl-nicotinamide]", "Ki": 2.63},
      {"molecule": "Cc1ccccc1-c1cc(N(O)CCO)ncc1N(C)C(=O)C(C)(C)c1cc(C(F)(F)F)cc(C(F)(F)F)c1", "note": "[Example 8, 2-(3,5-Bis-trifluoromethyl-phenyl)-N-{6-[hydroxy-(2-hydroxy-ethyl)-amino]-4-o-tolyl-pyridin-3-yl}-N-methyl-isobutyramide]", "Ki": 0.513},
      {"molecule": "Cc1ccccc1-c1cc(C2=CCNCC2)ncc1C(=O)N(C)Cc1cc(C(F)(F)F)cc(C(F)(F)F)c1", "note": "[Example 42, 4-o-Tolyl-1′,2′,3′,6′-tetrahydro-[2,4′]bipyridinyl-5-carboxylic acid (3,5-bis-trifluoromethyl-benzyl)-methyl-amide]", "Ki": 0.832},
      {"molecule": "C#Cc1cc(-c2ccccc2C)c(N(C)C(=O)C(C)(C)c2cc(C(F)(F)F)cc(C(F)(F)F)c2)cn1", "note": "[Example 66, 2-(3,5-Bis-trifluoromethyl-phenyl)-N-(6-ethynyl-4-o-tolyl-pyridin-3-yl)-N-methyl-isobutyramide]", "Ki": 2.69},
      {"molecule": "CC(=O)c1ccc(-c2cc(-c3ccccc3C)c(C(=O)N(C)Cc3cc(C(F)(F)F)cc(C(F)(F)F)c3)cn2)s1", "note": "[Example 38, 6-(5-Acetyl-thiophen-2-yl)-N-(3,5-bis-trifluoromethyl-benzyl)-N-methyl-4-o-tolyl-nicotinamide]", "Ki": 2.14},
      {"molecule": "Cc1ccccc1-c1cc(N(C(=O)C2CC2)C(=O)C2CC2)ncc1N(C)C(=O)C(C)(C)c1cc(C(F)(F)F)cc(C(F)(F)F)c1", "note": "[Example 16, Cyclopropanecarboxylic acid (5-{[2-(3,5-bis-trifluoromethyl-phenyl)-2-methyl-propionyl]-methyl-amino}-4-o-tolyl-pyridin-2-yl)-cyclopropanecarbonyl-amide]", "Ki": 3.16},
      {"molecule": "Cc1ccccc1-c1cc(Cl)ncc1N(C)C(=O)C(C)(C)c1cc(C(F)(F)F)cc(C(F)(F)F)c1", "note": "[Example 26, 2-(3,5-Bis-trifluoromethyl-phenyl)-N-(6-chloro-4-o-tolyl-pyridin-3-yl)-N-methyl-isobutyramide]", "Ki": 2.24},
      {"molecule": "Cc1ccccc1-c1cc(NC(=O)CO)ncc1N(C)C(=O)C(C)(C)c1cc(C(F)(F)F)cc(C(F)(F)F)c1", "note": "[Example 13, 2-(3,5-Bis-trifluoromethyl-phenyl)-N-[6-(2-hydroxy-acetylamino)-4-o-tolyl-pyridin-3-yl]-N-methyl-isobutyramide]", "Ki": 1.62}
    ]}
  ]
}
